Measurements: article PMC12084297, “Cytoplasmic connexin43-microtubule interactions promote glioblastoma stem-like cell maintenance and tumorigenicity” (Cell Death & Disease, 2025)

Assays:
VTC-034 GSCs = assay: Cellular uptake by NeutrAvidin-HRP blotting, VTC-034 GSCs; format: in vitro ADME, human
Text: JM2 peptide includes the Cx43 C-terminal amino acids 231–245 that encompass the tubulin binding sequence (VFFKGVKDRVKGRSD). A control peptide, JM2-scrambled, was generated by random re-assembly of the same residues (GSDVFKRKFVDRKVG). Both peptides contain a 16-amino acid antennapedia internalization sequence (RQPKIWFPNRRKPWKK) and are N-terminally biotinylated. Lyophilized peptides were obtained from Peptron, Inc. (South Korea) with purity > 95%, reconstituted in water or in PBS at a concentration of 10 mM, and aliquots were stored at −80 °C freezer. Reconstituted peptides were added to the cell culture medium at different concentrations for times indicated. […]
Cells were lysed in RIPA buffer (0.1% sodium dodecyl sulphate, 50 mM Tris pH 7.4, 150 mM NaCl, 1 mM EDTA, 1% Triton X-100, 1% deoxycholic acid, 200 μM Na3VO4, and 1 mM NaF) supplemented with Halt^TM Protease and Phosphatase Inhibitor Cocktail (Thermo Fisher). […] Protein concentration was quantified using the DC protein assay (Bio-Rad Laboratories) and a standard curve obtained with increasing concentrations of Bovine Serum Albumin (BSA; Fisher Scientific). […] Membranes were imaged on a ChemiDoc™ imaging system, and analyzed with Image Lab software (Bio-Rad Laboratories). […]

VTC-001 GSCs = assay: MTS viability, VTC-001 GSCs; format: cell-based, human; settings: 4 days
Procedure: (§1) Cells were plated in 96-well plates (2000–5000 cells per well) and treated the following day with TMZ (10, 50, or 100 μM), antennapedia, JM2-scrambled, or JM2 (10, 50, or 100 μM). After 4 days, cell viability was monitored following addition of MTS reagent (Promega) according to manufacturer’s instructions. The absorbance at 490 nm was measured using a SpectraMax i3 or iD3 microplate reader (Molecular Devices). For the caspase 3/7 activity assay, cells were plated in 96-well plates (2000 cells per well) and treated with TMZ or peptides as described above. The activity of caspase 3/7 was measured after 48 h using the Caspase-Glo® 3/7 assay (Promega) following the manufacturer’s instructions. Fold change of caspase 3/7 activity was defined as the ratio of caspase 3/7 luminescence in treated cells compared to controls.

LN229/GSCs = assay: MTS survival, LN229/GSCs; format: cell-based, human; settings: 100 µM, 4 days
Procedure: as §1

Notch1 [1] = assay: Notch1 protein expression, immunoblot, VTC-001 GSCs; format: cell-based, human; settings: 50 μM, 24 h
Procedure: (§2) Cells were lysed in RIPA buffer (0.1% sodium dodecyl sulphate, 50 mM Tris pH 7.4, 150 mM NaCl, 1 mM EDTA, 1% Triton X-100, 1% deoxycholic acid, 200 μM Na3VO4, and 1 mM NaF) supplemented with Halt^TM Protease and Phosphatase Inhibitor Cocktail (Thermo Fisher). Lysates were sonicated prior to centrifugation at 4 °C for 20 min at 10,000 x g. Protein concentration was quantified using the DC protein assay (Bio-Rad Laboratories) and a standard curve obtained with increasing concentrations of Bovine Serum Albumin (BSA; Fisher Scientific). Protein samples were normalized to 20 μg total protein per lane and resolved by SDS-PAGE electrophoresis. 4X Bolt LDS sample buffer supplemented with 400 mM DTT (final concentration 1X Bolt LDS with 100 mM DTT) was added to samples before heating at 70 °C for 10 min. SDS-PAGE was run using NuPAGE Bis-Tris 4%–12% gradient gels (Thermo Fisher) with MES or MOPS running buffer according to manufacturer’s instructions. Spectra™ Multicolor Protein Ladder (Thermo Fisher) or Precision Plus Protein™ Kaleidoscope™ Prestained Protein Standards (Bio-Rad Laboratories) were included as protein ladders on the same gels. […] Membranes were imaged on a ChemiDoc™ imaging system, and analyzed with Image Lab software (Bio-Rad Laboratories). […]

Notch1 [2] = assay: Notch1 protein expression, immunoblot, VTC-037 GSCs; format: cell-based, human; settings: 50 μM, 24 h
Procedure: as §2

Cx43 = settings: prior work with JM2; ref [41]; cited from earlier work
Text: Using JM2, a Cx43 mimetic peptide of Cx43 tubulin-binding domain, we confirm efficient and specific disruption of Cx43-microtubule interaction in GSCs together with decreased self-renewal abilities and enhanced killing of this cancer stem-like cell population, highlighting a novel tumorigenic role for Cx43 in GSCs, and GBM. Thermal shift assays reveal JM2 presents high affinity for both α- and β- tubulin. While chemotherapeutic drugs such as paclitaxel have been used to target microtubule functions as therapeutic agents, many of these therapeutic agents cause significant side-effects. M ...

## VFFKGVKDRVKGRSD [JM2]
VTC-034 GSCs; 50 μM, different times up to 48 h, NeutrAvidin-HRP blot
  Cellular uptake over time: apparent after 1 h, and sustained for 24 h before JM2 signal in GSCs decreased at 48 h
VTC-034 GSCs; different concentrations, 24 h, NeutrAvidin-HRP blot of biotin-tagged peptide
  Cellular uptake at increasing concentrations: Cellular uptake of JM2 at increasing concentrations was confirmed
VTC-001 GSCs; VTC-001 adherent GSCs, 100 μM
  GSC viability with JM2 alone in combination experiment (MTS): significantly decreased GSC viability
VTC-001 GSCs; VTC-001 adherent GSCs, 10, 50 or 100 μM
  GSC survival (MTS): significantly decreased VTC-001, VTC-034, and VTC-037 GSC survival when cultured as adherent cells in a dose-dependent manner
LN229/GSCs
  LN229/GSC survival (MTS): significantly decreased LN229/GSC survival after 4 days
Notch1 [1]
  Notch1 protein expression: significantly decreased Notch1 expression at the protein level
Notch1 [2]
  Notch1 protein expression: significantly decreased Notch1 expression at the protein level
Cx43
  Cx43 delivery to the cell surface: a loss of Cx43 delivery to the cell surface due to increased Cx43/tubulin complexing
